Assay results from patent US20240269139A1, “COMPOUNDS FOR TARGETED PROTEIN DEGRADATION OF KINASES” (DANA-FARBER CANCER INSTITUTE, INC., priority 2020, published 2024).
Where two headings read alike, the source gives them in different places.

Assays:
[1] = biological target: protein kinases (human kinome) (Homo sapiens, UniProt Q96DU7); format: cell-based; details: protein ITPKC (Q96DU7); experiment wp133, 4 hr; down
[2] = biological target: protein kinases (human kinome) (Homo sapiens, UniProt Q9UK32); format: cell-based
[3] = biological target: protein kinases (human kinome) (Homo sapiens, UniProt Q5S007); format: cell-based; details: for logFC: LRRK2 (Q5S007)
[4] = biological target: extended human kinome (kinase-like proteins) (Homo sapiens, UniProt Q9NYY8); test: Whole cell quantitative proteomics: extended kinome hits; details: Accession Q9NYY8; experiment wp160; 1 hr
[5] = format: cell-based, H. sapiens; details: MOLT-4, 1 μM, 5 h, 5 μM CB-5083
[6] = biological target: protein kinases (human kinome) (Homo sapiens, UniProt Q15759); format: cell-based; details: for logFC MAPK11 (Q15759): direction of change down; for logFC: MAPK11 (Q15759)
[7] = biological target: protein kinases (human kinome) (Homo sapiens, UniProt Q9H999); format: cell-based; details: PANK3 (Q9H999); experiment wp152
[8] = biological target: protein kinases (human kinome) (Homo sapiens, UniProt Q9H3S4); format: cell-based; details: TPK1 (Q9H3S4); experiment wp114
[9] = tested on: extended human kinome (kinase-like proteins); test: Whole cell quantitative proteomics: extended kinome hits; details: Accession Q16875-4; experiment wp117
[10] = biological target: T1, protein kinases (human kinome) (Homo sapiens, UniProt Q96D53); format: cell-based; details: experiment wp137; for logFC: COQ8B (Q96D53-1)
T1 sequence (Q96D53 1-544): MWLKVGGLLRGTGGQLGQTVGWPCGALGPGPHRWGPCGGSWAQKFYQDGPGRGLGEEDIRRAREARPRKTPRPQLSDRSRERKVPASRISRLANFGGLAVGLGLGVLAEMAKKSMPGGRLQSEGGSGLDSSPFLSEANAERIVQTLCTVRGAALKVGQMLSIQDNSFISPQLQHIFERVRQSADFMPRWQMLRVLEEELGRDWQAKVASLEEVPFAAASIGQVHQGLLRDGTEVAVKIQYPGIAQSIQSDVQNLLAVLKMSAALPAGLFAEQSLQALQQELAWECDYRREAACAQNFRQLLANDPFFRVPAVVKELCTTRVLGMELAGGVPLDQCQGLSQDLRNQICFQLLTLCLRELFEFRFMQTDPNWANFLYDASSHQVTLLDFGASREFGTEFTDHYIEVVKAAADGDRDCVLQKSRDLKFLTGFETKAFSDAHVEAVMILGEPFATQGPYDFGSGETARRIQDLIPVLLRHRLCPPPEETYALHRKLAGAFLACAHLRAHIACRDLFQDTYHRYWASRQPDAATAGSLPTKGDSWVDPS

[11] = biological target: protein kinases (human kinome) (Homo sapiens, UniProt Q16644); format: cell-based; details: experiment wp168
[12] = biological target: protein kinases (human kinome) (Homo sapiens, UniProt Q6JQN1); format: cell-based; details: ACAD10 (Q6JQN1); experiment wp056
[13] = biological target: T2, protein kinases (human kinome) (Homo sapiens, UniProt Q13043); format: cell-based; details: for logFC: STK4 (Q13043-1)
T2 sequence (Q13043 1-487): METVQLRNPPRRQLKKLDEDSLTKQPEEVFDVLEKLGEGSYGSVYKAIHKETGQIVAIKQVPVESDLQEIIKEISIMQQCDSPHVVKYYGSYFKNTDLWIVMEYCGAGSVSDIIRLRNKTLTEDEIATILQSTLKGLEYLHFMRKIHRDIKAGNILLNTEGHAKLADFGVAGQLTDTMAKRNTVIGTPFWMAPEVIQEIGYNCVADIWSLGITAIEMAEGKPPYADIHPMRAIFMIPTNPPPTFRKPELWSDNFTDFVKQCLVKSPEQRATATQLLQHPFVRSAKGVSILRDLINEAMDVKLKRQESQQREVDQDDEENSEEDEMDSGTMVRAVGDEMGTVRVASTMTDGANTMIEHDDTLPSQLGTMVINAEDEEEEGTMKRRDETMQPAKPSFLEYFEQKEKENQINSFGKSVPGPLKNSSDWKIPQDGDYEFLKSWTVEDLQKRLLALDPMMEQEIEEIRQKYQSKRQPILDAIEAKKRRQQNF

[14] = biological target: protein kinases (human kinome) (Homo sapiens, UniProt A2RU49); format: cell-based; details: protein HYKK (A2RU49); experiment wp117; down
protein kinases (human kinome) (Homo sapiens, UniProt A2RU49), sequence (A2RU49 whole entry): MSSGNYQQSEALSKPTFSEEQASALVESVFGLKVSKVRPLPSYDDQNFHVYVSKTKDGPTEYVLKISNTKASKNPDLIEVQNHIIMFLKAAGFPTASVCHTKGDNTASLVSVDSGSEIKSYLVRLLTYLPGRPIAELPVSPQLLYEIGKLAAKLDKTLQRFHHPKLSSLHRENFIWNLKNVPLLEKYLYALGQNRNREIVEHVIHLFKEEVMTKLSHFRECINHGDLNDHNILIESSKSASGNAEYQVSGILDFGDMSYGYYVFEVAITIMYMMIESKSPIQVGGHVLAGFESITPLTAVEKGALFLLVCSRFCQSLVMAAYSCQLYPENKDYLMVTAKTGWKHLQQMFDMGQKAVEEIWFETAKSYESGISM

protein kinases (human kinome) (Homo sapiens, UniProt Q5S007), sequence (Q5S007 whole entry): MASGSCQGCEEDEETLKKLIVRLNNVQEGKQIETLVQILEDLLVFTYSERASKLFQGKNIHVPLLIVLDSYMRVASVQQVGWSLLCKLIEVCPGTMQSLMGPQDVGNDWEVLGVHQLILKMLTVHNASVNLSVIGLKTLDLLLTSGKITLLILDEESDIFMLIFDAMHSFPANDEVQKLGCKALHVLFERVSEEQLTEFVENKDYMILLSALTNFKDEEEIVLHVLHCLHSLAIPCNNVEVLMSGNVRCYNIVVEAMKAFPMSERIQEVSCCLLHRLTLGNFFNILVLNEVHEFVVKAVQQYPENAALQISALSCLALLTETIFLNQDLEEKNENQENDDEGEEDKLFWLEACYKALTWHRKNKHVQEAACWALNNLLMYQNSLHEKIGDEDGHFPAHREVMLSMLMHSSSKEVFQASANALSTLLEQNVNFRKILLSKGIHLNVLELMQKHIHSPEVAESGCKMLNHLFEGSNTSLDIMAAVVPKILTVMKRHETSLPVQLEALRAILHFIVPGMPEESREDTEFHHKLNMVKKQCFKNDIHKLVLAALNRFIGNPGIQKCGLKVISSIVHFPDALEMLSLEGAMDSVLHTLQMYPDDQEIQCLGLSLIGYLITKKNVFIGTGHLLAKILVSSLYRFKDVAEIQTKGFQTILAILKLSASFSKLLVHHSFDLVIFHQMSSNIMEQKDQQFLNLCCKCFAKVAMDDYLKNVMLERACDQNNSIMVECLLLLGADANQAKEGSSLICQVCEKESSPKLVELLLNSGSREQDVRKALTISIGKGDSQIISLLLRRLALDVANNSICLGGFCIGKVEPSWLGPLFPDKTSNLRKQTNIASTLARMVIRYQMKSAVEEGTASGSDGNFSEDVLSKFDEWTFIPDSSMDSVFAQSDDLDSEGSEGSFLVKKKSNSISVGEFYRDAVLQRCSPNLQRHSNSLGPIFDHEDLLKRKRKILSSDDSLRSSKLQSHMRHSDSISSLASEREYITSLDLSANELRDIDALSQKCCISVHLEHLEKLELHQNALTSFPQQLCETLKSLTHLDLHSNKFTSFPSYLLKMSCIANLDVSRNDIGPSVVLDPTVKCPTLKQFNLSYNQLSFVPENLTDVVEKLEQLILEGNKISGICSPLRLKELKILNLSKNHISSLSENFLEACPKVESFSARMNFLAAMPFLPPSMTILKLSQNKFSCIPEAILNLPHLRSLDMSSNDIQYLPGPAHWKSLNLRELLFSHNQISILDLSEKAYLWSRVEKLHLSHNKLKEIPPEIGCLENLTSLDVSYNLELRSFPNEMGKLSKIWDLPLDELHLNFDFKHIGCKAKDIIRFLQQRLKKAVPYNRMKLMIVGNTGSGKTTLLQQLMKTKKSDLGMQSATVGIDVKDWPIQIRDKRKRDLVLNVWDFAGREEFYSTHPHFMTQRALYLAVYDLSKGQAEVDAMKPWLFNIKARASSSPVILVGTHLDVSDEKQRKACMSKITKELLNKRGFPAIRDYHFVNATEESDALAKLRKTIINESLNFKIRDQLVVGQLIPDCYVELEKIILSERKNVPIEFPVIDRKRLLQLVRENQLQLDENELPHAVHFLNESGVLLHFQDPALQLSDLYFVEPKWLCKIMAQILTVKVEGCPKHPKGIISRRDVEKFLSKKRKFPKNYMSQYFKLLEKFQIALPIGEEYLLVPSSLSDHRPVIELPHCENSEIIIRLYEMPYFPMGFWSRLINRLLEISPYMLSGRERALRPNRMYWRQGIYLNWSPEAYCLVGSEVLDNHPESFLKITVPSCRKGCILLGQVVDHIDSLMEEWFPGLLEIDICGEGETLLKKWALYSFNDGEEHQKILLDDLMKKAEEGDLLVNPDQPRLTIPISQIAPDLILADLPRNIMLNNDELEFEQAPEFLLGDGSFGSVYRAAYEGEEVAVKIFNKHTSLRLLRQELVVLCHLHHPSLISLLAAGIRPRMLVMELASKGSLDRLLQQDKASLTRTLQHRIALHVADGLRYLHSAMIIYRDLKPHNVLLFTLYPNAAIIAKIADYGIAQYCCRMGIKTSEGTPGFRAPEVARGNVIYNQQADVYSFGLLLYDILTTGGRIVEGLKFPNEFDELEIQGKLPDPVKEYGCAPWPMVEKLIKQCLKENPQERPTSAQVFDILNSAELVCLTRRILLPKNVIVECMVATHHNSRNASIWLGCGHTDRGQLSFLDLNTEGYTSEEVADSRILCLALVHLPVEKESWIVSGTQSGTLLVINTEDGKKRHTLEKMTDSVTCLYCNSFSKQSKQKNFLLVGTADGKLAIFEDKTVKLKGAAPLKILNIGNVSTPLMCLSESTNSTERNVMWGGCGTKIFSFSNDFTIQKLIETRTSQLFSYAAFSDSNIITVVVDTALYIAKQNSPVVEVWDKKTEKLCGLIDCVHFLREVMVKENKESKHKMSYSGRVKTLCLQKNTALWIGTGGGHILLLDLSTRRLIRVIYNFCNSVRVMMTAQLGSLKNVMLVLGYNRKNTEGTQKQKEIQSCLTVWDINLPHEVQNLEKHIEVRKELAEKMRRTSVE
protein kinases (human kinome) (Homo sapiens, UniProt Q15759), sequence (Q15759 whole entry): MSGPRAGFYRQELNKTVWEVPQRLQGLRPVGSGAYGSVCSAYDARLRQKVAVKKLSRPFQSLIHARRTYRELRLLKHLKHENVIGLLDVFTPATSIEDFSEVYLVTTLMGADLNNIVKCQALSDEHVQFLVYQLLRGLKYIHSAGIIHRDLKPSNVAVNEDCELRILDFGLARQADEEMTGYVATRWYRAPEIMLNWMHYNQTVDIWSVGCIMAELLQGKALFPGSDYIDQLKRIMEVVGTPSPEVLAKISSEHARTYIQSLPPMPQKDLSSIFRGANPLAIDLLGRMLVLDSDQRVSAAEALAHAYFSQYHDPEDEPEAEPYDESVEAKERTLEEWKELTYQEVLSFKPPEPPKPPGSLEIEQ
protein kinases (human kinome) (Homo sapiens, UniProt Q16644), sequence (Q16644 whole entry): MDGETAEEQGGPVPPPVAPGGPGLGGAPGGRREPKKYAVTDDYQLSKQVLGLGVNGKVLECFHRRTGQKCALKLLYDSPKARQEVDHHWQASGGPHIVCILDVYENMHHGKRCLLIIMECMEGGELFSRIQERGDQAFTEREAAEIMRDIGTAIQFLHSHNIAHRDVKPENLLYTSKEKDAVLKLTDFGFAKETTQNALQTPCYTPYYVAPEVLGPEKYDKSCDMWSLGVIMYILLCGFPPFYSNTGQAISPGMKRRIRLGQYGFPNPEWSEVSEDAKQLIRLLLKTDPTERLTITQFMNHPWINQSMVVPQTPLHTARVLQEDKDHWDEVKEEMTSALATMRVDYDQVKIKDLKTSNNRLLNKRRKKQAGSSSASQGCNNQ
protein kinases (human kinome) (Homo sapiens, UniProt Q9UK32), sequence (Q9UK32 whole entry): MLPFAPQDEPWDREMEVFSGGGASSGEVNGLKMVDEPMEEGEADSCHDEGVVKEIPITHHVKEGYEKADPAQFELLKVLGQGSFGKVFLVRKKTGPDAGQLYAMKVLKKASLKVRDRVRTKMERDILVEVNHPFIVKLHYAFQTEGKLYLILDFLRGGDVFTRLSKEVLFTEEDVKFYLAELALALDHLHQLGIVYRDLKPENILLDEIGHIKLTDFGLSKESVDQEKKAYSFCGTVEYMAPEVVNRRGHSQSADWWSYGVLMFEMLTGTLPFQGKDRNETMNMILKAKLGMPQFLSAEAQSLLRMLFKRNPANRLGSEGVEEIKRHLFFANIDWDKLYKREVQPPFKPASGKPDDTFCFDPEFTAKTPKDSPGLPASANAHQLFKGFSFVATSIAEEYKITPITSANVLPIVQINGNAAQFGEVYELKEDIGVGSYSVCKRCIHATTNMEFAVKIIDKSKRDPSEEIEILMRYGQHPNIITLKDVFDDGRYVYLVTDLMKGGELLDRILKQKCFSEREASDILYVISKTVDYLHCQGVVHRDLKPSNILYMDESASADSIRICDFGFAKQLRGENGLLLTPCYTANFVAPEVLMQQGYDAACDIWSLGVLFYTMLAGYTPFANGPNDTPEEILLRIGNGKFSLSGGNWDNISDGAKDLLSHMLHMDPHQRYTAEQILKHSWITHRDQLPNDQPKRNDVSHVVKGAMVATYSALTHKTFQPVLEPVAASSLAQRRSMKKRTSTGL
protein kinases (human kinome) (Homo sapiens, UniProt Q9H3S4), sequence (Q9H3S4 whole entry): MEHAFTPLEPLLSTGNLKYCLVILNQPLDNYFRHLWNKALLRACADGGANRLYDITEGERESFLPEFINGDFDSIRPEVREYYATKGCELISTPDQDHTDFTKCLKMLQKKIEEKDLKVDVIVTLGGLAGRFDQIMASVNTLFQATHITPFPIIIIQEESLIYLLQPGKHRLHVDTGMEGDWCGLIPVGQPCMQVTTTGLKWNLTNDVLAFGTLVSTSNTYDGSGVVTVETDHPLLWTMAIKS
protein kinases (human kinome) (Homo sapiens, UniProt Q9H999), sequence (Q9H999 whole entry): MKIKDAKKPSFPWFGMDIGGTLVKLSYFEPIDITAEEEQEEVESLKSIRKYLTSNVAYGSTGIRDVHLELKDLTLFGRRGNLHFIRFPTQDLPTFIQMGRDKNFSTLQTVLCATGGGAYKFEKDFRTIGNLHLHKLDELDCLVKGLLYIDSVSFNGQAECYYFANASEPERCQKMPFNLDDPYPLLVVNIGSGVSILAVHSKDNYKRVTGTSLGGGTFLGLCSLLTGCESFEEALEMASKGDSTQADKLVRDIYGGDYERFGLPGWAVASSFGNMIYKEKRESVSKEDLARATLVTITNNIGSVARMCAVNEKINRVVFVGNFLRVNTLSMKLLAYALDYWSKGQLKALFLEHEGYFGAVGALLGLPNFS

## CC(C)S(=O)(=O)c1ccccc1Nc1nc(Nc2ccc(N3CCN(CCOCCNC(=O)CNc4cccc5c4C(=O)N(C4CCC(=O)NC4=O)C5=O)CC3)cc2)ncc1Cl (stereo not drawn) [SK.3.91]
[1]
  logFC ITPKC: −0.3556
[2]; Experiment wp105, direction of change down
  logFC RPS6KA6 (Q9UK32): −0.83
[2]; protein RPSGKA6 (Q9UK32), experiment wp105, down
  logFC RPSGKA6: −0.83
[3]; experiment wp160, 1 hr
  logFC: −0.8447
  logFC of LRRK2 (Q5S007): −0.8447
[4]
  logFC FASTKD2: −1

## Cc1ccc(NC(=O)c2cccc(C(F)(F)F)c2)cc1N1Cc2cnc(Nc3ccc(N4CCN(Cc5cn(CCCCCOc6cccc7c6C(=O)N(C6CCC(=O)NC6=O)C7=O)nn5)CC4)nc3)nc2N(C)C1=O (stereo not drawn) [DB0646, N-(3-(7-((6-(4-((1-(5-((2-(2,6-Dioxopiperidin-3-yl)-1,3-dioxoisoindolin-4-yl)oxy)pentyl)-1H-1,2,3-triazol-4-yl)methyl)piperazin-1-v)pyridin-3-yl)amino)-1-methyl-2-oxo-1,4-dihydropyrimido[4,5-d]pyrimidin-3(2H)-yl)-4-methylphenyl)-3-(trifluoromethyl)benzamide]
[5]
  CSK degradation rescue on p97 inhibition: very little degradation rescue
[6]; Experiment wp105
  logFC MAPK11 (Q15759): −0.3998
[6]; Experiment wp114
  logFC MAPK11 (Q15759): −0.6209
[6]; experiment wp105
  logFC: −0.3998
[6]; experiment wp114
  logFC: −0.6209
[7]
  logFC: −0.3534
[8]
  logFC: −1.144
[3]; Experiment wp160, 2 hr
  logFC of LRRK2 (Q5S007): −1.181
[3]; experiment wp160, 2 hr
  logFC: −1.181
[3]; experiment wp160, 4 hr
  logFC: −1.307
  logFC of LRRK2 (Q5S007): −1.307
[3]; experiment wp160, 1 hr
  logFC: −1.165
  logFC of LRRK2 (Q5S007): −1.165
[3]; experiment wp160, 8 hr
  logFC: −1.747
  logFC of LRRK2 (Q5S007): −1.747
[9]
  logFC PFKFB3: −0.377

## CC(C)(C)c1nc(-c2cccc(NS(=O)(=O)c3c(F)cccc3F)c2F)c(-c2ccnc(NCCOCCNC(=O)CCOCCOCCNc3cccc4c3C(=O)N(C3CCC(=O)NC3=O)C4=O)n2)s1 (stereo not drawn) [DD.03.106]
[10]
  logFC: −0.3442
  logFC of COQ8B (Q96D53-1): −0.3442

## Cc1ccc(NC(=O)c2cccc(C(F)(F)F)c2)cc1N1Cc2cnc(Nc3ccc(N4CCN(CCCCC(=O)N[C@H](C(=O)N5C[C@H](O)C[C@H]5C(=O)N[C@@H](C)c5ccc(-c6scnc6C)cc5)C(C)(C)C)CC4)nc3)nc2N(C)C1=O [DB1113]
[11]; MAPKAPK3 (Q16644)
  logFC: −3.127
[11]; direction of change down
  logFC MAPKAPK3 (Q16644): −3.127

## CC(C)S(=O)(=O)c1ccccc1Nc1nc(Nc2ccc(N3CCN(CCOCCOCCNC(=O)CNc4cccc5c4C(=O)N(C4CCC(=O)NC4=O)C5=O)CC3)cc2)ncc1Cl (stereo not drawn) [TL12.186]
[10]
  logFC: −0.4934
  logFC of COQ8B (Q96D53-1): −0.4934

## Cc1ncsc1-c1ccc([C@H](C)NC(=O)[C@@H]2C[C@@H](O)CN2C(=O)[C@@H](NC(=O)CCOCCOCCN2CCN(c3ccc(Nc4ncc(Cl)c(Nc5ccccc5S(=O)(=O)C(C)C)n4)cc3)CC2)C(C)(C)C)cc1 [FMF.06.098.1]
[8]
  logFC: −0.8744

## Cc1ccc(C(=O)Nc2ccc(CN3CCN(CCCOCCOCCOCCNC(=O)COc4cccc5c4C(=O)N(C4CCC(=O)NC4=O)C5=O)CC3)c(C(F)(F)F)c2)cc1C#Cc1cnc2cccnn12 (stereo not drawn) [SB1.G.187]
[12]
  logFC: −0.3838

## Nc1ncc(-c2ccc(S(=O)(=O)N(CCCNC(=O)CCOCCOCCOCCOCCOCCNc3cccc4c3C(=O)N(C3CCC(=O)NC3=O)C4=O)C3CC3)cc2)cc1-c1ccc2c(c1)CCNC2=O (stereo not drawn) [WH.10417.099]
[13]; Experiment wp103
  logFC of STK4 (Q13043-1): −0.7387
[13]; Experiment wp107
  logFC of STK4 (Q13043-1): −0.7188
[13]; Experiment wp172
  logFC of STK4 (Q13043-1): −0.5983
[13]; experiment wp056
  logFC: −0.7157
  logFC of STK4 (Q13043-1): −0.7157
[13]; experiment wp103
  logFC: −0.7387
[13]; experiment wp107
  logFC: −0.7188
[13]; experiment wp172
  logFC: −0.5983

## Cc1ncsc1-c1ccc([C@H](C)NC(=O)[C@@H]2C[C@@H](O)CN2C(=O)[C@@H](NC(=O)CCCCCN2CCN(c3ccc(Nc4ncc5scc(-c6cccc(NS(C)(=O)=O)c6)c5n4)cc3)CC2)C(C)(C)C)cc1 [RSS0680, (2S,4R)-1-((S)-3,3-Dimethyl-2-(6-(4-(4-((7-(3-(methylsulfonamido)phenyl)thieno[3,2-d]pyrimidin-2-yl)amino)phenyl)piperazin-1-yl)hexanamido)butanoyl)-4-hydroxy-N—((S)-1-(4-(4-methylthiazol-5yl)phenyl)ethyl)pyrrolidine-2-carboxamide]
[14]
  logFC HYKK: −0.3476
